Source: publication PMC10893631, “Receptor-based pharmacophore modeling, molecular docking, synthesis and biological evaluation of novel VEGFR-2, FGFR-1, and BRAF multi-kinase inhibitors” (BMC Chemistry, 2024)

How the values were obtained:
Assay in all cases: NCI SRB growth inhibition (single dose 10 µM / five-dose)
Format in all cases: cell-based, human
OVCAR-5 = details: Homo sapiens; for inhibition at 10 µM: OVCAR-5 (Ovarian cancer), read-out: GI%; for GI50: OVCAR-5, Ovarian cancer, five-dose
Method in brief: (§1)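 After a 24 h pre-incubation, cells received drug at five serially diluted concentrations; two untreated plates per line were TCA-fixed at drug addition as Tz. Adherent plates were fixed with cold TCA, stained with SRB and washed with 1% acetic acid.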

SK-MEL-2 = details: Homo sapiens; for GI50: SK-MEL-2, Melanoma, five-dose; for inhibition at 10 µM: SK-MEL-2 (Melanoma), read-out: GI%
Method in brief: as §1

SF-295 = details: Homo sapiens; for inhibition at 10 µM: SF-295 (CNS cancer), read-out: GI%; for GI50: SF-295, CNS cancer, five-dose
Method in brief: as §1

UACC-62 = details: Homo sapiens; for inhibition at 10 µM: UACC-62 (Melanoma), read-out: GI%; for GI50: UACC-62, Melanoma, five-dose
Method in brief: as §1

MALME-3 M = details: Homo sapiens; for inhibition at 10 µM: MALME-3 M (Melanoma), read-out: GI%; for GI50: MALME-3 M, Melanoma, five-dose
Method in brief: as §1

HCC-2998 = details: Homo sapiens; for inhibition at 10 µM: HCC-2998 (Colon cancer), read-out: GI%; for GI50: HCC-2998, Colon cancer, five-dose
Method in brief: as §1

HS 578 T = details: Homo sapiens; for inhibition at 10 µM: HS 578 T (Breast cancer), read-out: GI%; for GI50: HS 578 T, Breast cancer, five-dose
Method in brief: as §1

PC-3 = details: Homo sapiens; for inhibition at 10 µM: PC-3 (Prostate cancer), read-out: GI%
Method in brief: as §1

EKVX = details: Homo sapiens; for inhibition at 10 µM: EKVX (Non-small cell lung cancer), read-out: GI%; for GI50: EKVX, Non-small cell lung cancer, five-dose
Method in brief: as §1

A498 = details: Homo sapiens; for inhibition at 10 µM: A498 (Renal cancer), read-out: GI%; for GI50: A498, Renal cancer, five-dose
Method in brief: as §1

NCI-H23 = details: Homo sapiens; for inhibition at 10 µM: NCI-H23 (Non-small cell lung cancer), read-out: GI%; for GI50: NCI-H23, Non-small cell lung cancer, five-dose
Method in brief: as §1

TK-10 = details: Homo sapiens; for inhibition at 10 µM: TK-10 (Renal cancer), read-out: GI%; for GI50: TK-10, Renal cancer, five-dose
Method in brief: as §1

IGROV1 = details: Homo sapiens, IGROV-1; for inhibition at 10 µM: IGROV1 (Ovarian cancer), read-out: GI%; for GI50: IGROV1, Ovarian cancer, five-dose
Method in brief: as §1

K-562 = details: Homo sapiens, K562; for inhibition at 10 µM: K-562 (Leukemia), read-out: GI%; for GI50: K-562, Leukemia, five-dose
Method in brief: as §1

NCI-H460 = details: Homo sapiens; for inhibition at 10 µM: NCI-H460 (Non-small cell lung cancer), read-out: GI%; for GI50: NCI-H460, Non-small cell lung cancer, five-dose
Method in brief: as §1

MCF7 = details: Homo sapiens; for inhibition at 10 µM: MCF7 (Breast cancer), read-out: GI%; for GI50: MCF7, Breast cancer, five-dose
Method in brief: as §1

CCRF-CEM = details: Homo sapiens; for inhibition at 10 µM: CCRF-CEM (Leukemia), read-out: GI%; for GI50: CCRF-CEM, Leukemia, five-dose
Method in brief: as §1

OVCAR-3 = details: Homo sapiens; for inhibition at 10 µM: OVCAR-3 (Ovarian cancer), read-out: GI%; for GI50: OVCAR-3, Ovarian cancer, five-dose
Method in brief: as §1

SW-620 = details: Homo sapiens; for inhibition at 10 µM: SW-620 (Colon cancer), read-out: GI%; for GI50: SW-620, Colon cancer, five-dose
Method in brief: as §1

OVCAR-8 = details: Homo sapiens; for inhibition at 10 µM: OVCAR-8 (Ovarian cancer), read-out: GI%; for GI50: OVCAR-8, Ovarian cancer, five-dose
Method in brief: as §1

T-47D = details: Homo sapiens, T47D; for inhibition at 10 µM: T-47D (Breast cancer), read-out: GI%; for GI50: T-47D, Breast cancer, five-dose
Method in brief: as §1

SK-MEL-28 = details: Homo sapiens; for inhibition at 10 µM: SK-MEL-28 (Melanoma), read-out: GI%; for GI50: SK-MEL-28, Melanoma, five-dose
Method in brief: as §1

UACC-257 = details: Homo sapiens; for inhibition at 10 µM: UACC-257 (Melanoma), read-out: GI%; for GI50: UACC-257, Melanoma, five-dose
Method in brief: as §1

A549/ATCC = details: Homo sapiens; for inhibition at 10 µM: A549/ATCC (Non-small cell lung cancer), read-out: GI%; for GI50: A549/ATCC, Non-small cell lung cancer, five-dose
Method in brief: as §1

RPMI-8226 = details: Homo sapiens; for inhibition at 10 µM: RPMI-8226 (Leukemia), read-out: GI%; for GI50: RPMI-8226, Leukemia, five-dose
Method in brief: as §1

COLO 205 = details: Homo sapiens; for inhibition at 10 µM: COLO 205 (Colon cancer), read-out: GI%; for GI50: COLO 205, Colon cancer, five-dose
Method in brief: as §1

COc1ccc(-c2nc3cc(C(=O)NN=Cc4ccccc4O)ccc3[nH]2)cc1 [8h, N'-(2-Hydroxybenzylidene)-2-(4-methoxyphenyl)-1H-benzo[d]imidazole-5-carbohydrazide]
inhibition at 10 µM (OVCAR-5): > 100% | GI50 (OVCAR-5): 6.55 µM | GI50 (SK-MEL-2): 5.17 µM | inhibition at 10 µM (SF-295): > 100% | GI50 (SF-295): 1.26 µM | inhibition at 10 µM (UACC-62): > 100% | GI50 (UACC-62): 2.53 µM | inhibition at 10 µM (MALME-3 M): > 100% | GI50 (MALME-3 M): 1.77 µM | inhibition at 10 µM (HCC-2998): 99.6% | GI50 (HCC-2998): 4.43 µM | inhibition at 10 µM (HS 578 T): > 100% | GI50 (HS 578 T): 0.94 µM | inhibition at 10 µM (PC-3): > 100% | GI50 (PC-3; PC-3, Prostate cancer, five-dose): 1.77 µM | inhibition at 10 µM (EKVX): 92.2% | GI50 (EKVX): 3.24 µM | inhibition at 10 µM (A498): 54.5% | GI50 (A498): 9.21 µM | inhibition at 10 µM (NCI-H23): 94.6% | GI50 (NCI-H23): 2.06 µM | inhibition at 10 µM (TK-10): > 100% | GI50 (TK-10): 6.19 µM | inhibition at 10 µM (IGROV1): > 100% | GI50 (IGROV1): 2.26 µM | inhibition at 10 µM (K-562): 99.5% | GI50 (K-562): 1.36 µM | inhibition at 10 µM (NCI-H460): > 100% | GI50 (NCI-H460): 1.87 µM | inhibition at 10 µM (MCF7): > 100% | GI50 (MCF7): 1.67 µM | inhibition at 10 µM (CCRF-CEM): 94.3% | GI50 (CCRF-CEM): 0.92 µM | inhibition at 10 µM (OVCAR-3): > 100% | GI50 (OVCAR-3): 1.98 µM | inhibition at 10 µM (SW-620): > 100% | GI50 (SW-620): 1.75 µM | inhibition at 10 µM (OVCAR-8): > 100% | GI50 (OVCAR-8): 1.97 µM | inhibition at 10 µM (T-47D): > 100% | GI50 (T-47D): 2.6 µM | inhibition at 10 µM (SK-MEL-28): > 100% | GI50 (SK-MEL-28): 2.96 µM | inhibition at 10 µM (UACC-257): 85% | GI50 (UACC-257): 6.32 µM | inhibition at 10 µM (A549/ATCC): > 100% | GI50 (A549/ATCC): 3.03 µM | inhibition at 10 µM (RPMI-8226): 96.7% | GI50 (RPMI-8226): 1.39 µM | inhibition at 10 µM (COLO 205): > 100% | GI50 (COLO 205): 2.9 µM

COc1ccc(-c2nc3cc(C(=O)NN=Cc4cccc(O)c4)ccc3[nH]2)cc1 [8i, N'-(3-Hydroxybenzylidene)-2-(4-methoxyphenyl)-1H-benzo[d]imidazole-5-carbohydrazide]
inhibition at 10 µM (OVCAR-5): < 5% | inhibition at 10 µM (SK-MEL-2): 37.5% | inhibition at 10 µM (SF-295): 22% | inhibition at 10 µM (UACC-62): 50.8% | inhibition at 10 µM (MALME-3 M): > 100% | inhibition at 10 µM (HCC-2998): 14.9% | inhibition at 10 µM (HS 578 T): 52.6% | inhibition at 10 µM (PC-3): 34.4% | inhibition at 10 µM (EKVX): 23.4% | inhibition at 10 µM (A498): < 5% | inhibition at 10 µM (NCI-H23): 6.56% | inhibition at 10 µM (TK-10): < 5% | inhibition at 10 µM (IGROV1): 11.2% | inhibition at 10 µM (K-562): 60.6% | inhibition at 10 µM (NCI-H460): 5.05% | inhibition at 10 µM (MCF7): 88.2% | inhibition at 10 µM (CCRF-CEM): 80.8% | inhibition at 10 µM (OVCAR-3): 8.04% | inhibition at 10 µM (SW-620): 6.72% | inhibition at 10 µM (OVCAR-8): 38.1% | inhibition at 10 µM (T-47D): 86.8% | inhibition at 10 µM (SK-MEL-28): 52.9% | inhibition at 10 µM (UACC-257): 47.4% | inhibition at 10 µM (A549/ATCC): 11.2% | inhibition at 10 µM (RPMI-8226): 24.8% | inhibition at 10 µM (COLO 205): 32.4%

COc1ccc(-c2nc3cc(C(=O)NN=Cc4cccc(OC)c4)ccc3[nH]2)cc1 [8j, N'-(3-Methoxybenzylidene)-2-(4-methoxyphenyl)-1H-benzo[d]imidazole-5-carbohydrazide]
inhibition at 10 µM (OVCAR-5): 91.2% | GI50 (OVCAR-5): 4.69 µM | inhibition at 10 µM (SK-MEL-2): 81% | GI50 (SK-MEL-2): 10.6 µM | inhibition at 10 µM (SF-295): 167% | GI50 (SF-295): 2.93 µM | inhibition at 10 µM (UACC-62): 58.9% | GI50 (UACC-62): 6.5 µM | inhibition at 10 µM (MALME-3 M): > 100% | GI50 (MALME-3 M): 2.45 µM | inhibition at 10 µM (HCC-2998): 88.5% | GI50 (HCC-2998): 3.52 µM | inhibition at 10 µM (HS 578 T): > 100% | GI50 (HS 578 T): 1.9 µM | inhibition at 10 µM (PC-3): > 100% | inhibition at 10 µM (EKVX): > 100% | GI50 (EKVX): 2.76 µM | inhibition at 10 µM (A498): < 5% | GI50 (A498): 21.5 µM | inhibition at 10 µM (NCI-H23): > 100% | GI50 (NCI-H23): 2.95 µM | inhibition at 10 µM (TK-10): > 100% | GI50 (TK-10): 12.6 µM | inhibition at 10 µM (IGROV1): > 100% | GI50 (IGROV1): 3.49 µM | inhibition at 10 µM (K-562): 88.1% | GI50 (K-562): 6.92 µM | inhibition at 10 µM (NCI-H460): > 100% | GI50 (NCI-H460): 1.85 µM | inhibition at 10 µM (MCF7): > 100% | GI50 (MCF7): 2.5 µM | inhibition at 10 µM (CCRF-CEM): 35% | GI50 (CCRF-CEM): 7.91 µM | inhibition at 10 µM (OVCAR-3): > 100% | GI50 (OVCAR-3): 2.05 µM | inhibition at 10 µM (SW-620): > 100% | GI50 (SW-620): 3.1 µM | inhibition at 10 µM (OVCAR-8): > 100% | GI50 (OVCAR-8): 1.92 µM | inhibition at 10 µM (T-47D): > 100% | GI50 (T-47D): 2.62 µM | inhibition at 10 µM (SK-MEL-28): 64.2% | GI50 (SK-MEL-28): 3.93 µM | inhibition at 10 µM (UACC-257): 57.7% | GI50 (UACC-257): 11 µM | inhibition at 10 µM (A549/ATCC): > 100% | GI50 (A549/ATCC): 3.05 µM | inhibition at 10 µM (RPMI-8226): > 100% | GI50 (RPMI-8226): 4.14 µM | inhibition at 10 µM (COLO 205): > 100% | GI50 (COLO 205): 4.3 µM
